Source: patent publication US20110319379A1, “Substituted Indazole Amides And Their Use As Glucokinase Activators” (priority 2009, published 2011)

Target: T1, recombinant human glucokinase (Homo sapiens, UniProt P35557)
T1 construct: Full-length glucokinase (beta cell isoform) was His-tagged at the N-terminus and purified by a Ni column followed by size exclusion chromatography as described above; His tag; made in house; host or cells: E. coli BL21(DE3), vector pBCGK
T1 sequence (P35557 1-465): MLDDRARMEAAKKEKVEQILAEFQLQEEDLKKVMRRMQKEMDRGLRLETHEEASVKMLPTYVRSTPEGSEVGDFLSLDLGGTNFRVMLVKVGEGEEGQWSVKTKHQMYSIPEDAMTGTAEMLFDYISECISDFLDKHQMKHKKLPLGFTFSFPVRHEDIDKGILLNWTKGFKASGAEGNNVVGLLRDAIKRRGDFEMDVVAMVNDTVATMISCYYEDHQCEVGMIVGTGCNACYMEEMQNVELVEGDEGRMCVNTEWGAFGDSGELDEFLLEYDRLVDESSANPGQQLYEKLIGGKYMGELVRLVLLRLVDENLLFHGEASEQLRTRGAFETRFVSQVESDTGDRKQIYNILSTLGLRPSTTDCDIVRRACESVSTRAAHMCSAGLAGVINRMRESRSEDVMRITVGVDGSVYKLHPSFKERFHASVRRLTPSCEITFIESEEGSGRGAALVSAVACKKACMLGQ
Experiment: Assay 2: Evaluating Activator Potency in a Matrix Assay at Multiple Glucose Concentrations
Assay type: biochemical
Conditions: Assay 2 matrix assay; 16 glucose concentrations; intrinsic EC50 = concentration affording a 50% reduction in the enzyme's Km (for glucose); read-out: Glucokinase EC50
Protocol: Representative compounds of this invention were evaluated in biochemical assays (Assay 1 or Assay 2) to characterize their glucokinase activation properties.
The recombinant human glucokinase protein utilized in both assays was prepared and purified as described below.
BL21(DE3) cells (Invitrogen Corporation, Carlsbad, Calif.) containing pBCGK (C or N H is) vector were grown at 37° C. (in 2XYT) until the OD600 was between 0.6-1.0. Expression was induced by addition of isopropylthiogalactoside to a final concentration of 0.1-0.2 mM to the cells which were then incubated overnight at 23° C. The next day, cells were harvested via centrifugation at 5000 rpm for 15 minutes at 4° C. The cell pellet was stored at −80° C. for future purification.
Beta Cell Glucokinase His-Taq Purification Conditions: A Ni-NTA (Quigan, Germantown, Md.) column (15-50 mL) was used for separation. Two buffers were prepared, 1) a lysis/nickel equilibration and wash buffer and 2) a nickel elution buffer. The lysis/equilibration/wash buffer was prepared as such: 25 mM HEPES buffer at pH 7.5, 250 mM NaCl, 20 mM imidazole, and 14 mM β-mercaptoethanol as final concentrations. The elution buffer was prepared as such: 25 mM HEPES at pH 7.5, 250 mM NaCl, 400 mM imidazole, and 14 mM β-mercaptoethanol as final concentrations. The buffers were each filtered with a 0.22 μm filter prior to use. The cell pellet (1 L culture) was resuspended in 300 mL of the lysis/equilibration buffer. The cells were then lysed (3 times) with a Microfluidics Model 110Y microfluidizer (Microfluidics Corporation, Newton, Mass.). The slurry was centrifuged with a Beckman Coulter Model LE-80K ultracentrifuge (Beckman Coulter, Fullerton, Calif.) at 40,000 rpm for 45 minutes at 4° C. The supernatant was transferred to a chilled flask. A volume of 20 μl was saved for gel analysis. A Pharmacia AKTA (GMI, Inc., Ramsey, Minn.) purification system was used for separation. The prime lines were purged with lysis/equilibration buffer. The Ni-NTA column was equilibrated with 200 mL of the lysis/equilibration buffer at a flow rate of 5 mL/minute. The supernantant was loaded over the column at 4 mL/minute and the flow-through was collected in a flask. The unbound proteins were washed with lysis/equilibration buffer at a flow rate of 5 mL/minute until the ultraviolet reaches baseline. The protein was then eluted from the column with the imidazole elution buffer via imidazole gradient 20 mM to 400 mM over 320 mL. The column was then stripped of any additional protein with 80 mL of the elution buffer. The elution fractions were each 8 mL, for a total yield of 50 samples. Fractions were analyzed by sodium dodecyl sulfate polyacrylamide (SDS-PAGE) and the fractions containing protein of interest were pooled and concentrated to 10 mL using ultrafiltration cell with a 10,000 molecular weight cut-off (MWCO) Millipore membrane (Sigma-Aldrich, St. Louis, Mo.) under nitrogen gas (60 psi). Protein was further purified by size exclusion chromatography (SEC) using a […] (320 mL) (Amersham Pharmacia, Uppsala, Sweden). SEC was equilibrated with 450 mL sizing buffer containing 25 mM HEPES pH 7.0, 50 mM NaCl, and 5 mM dithiothreitol. Concentrated protein was then loaded over SEC and elution with 400 mL sizing buffer was performed overnight at 0.5 mL/minute. The elution fractions were 5 mL each. The fractions were analyzed by SDS-PAGE and protein containing fractions were pooled. Concentration was measured using Bradford Assay/BSA Standard. Purified protein was stored in small aliquots at −80° C.
Assay 2: Evaluating Activator Potency in a Matrix Assay at Multiple Glucose Concentrations
Utilizing an adaptation of this method, representative compounds of the current invention were evaluated at 22 different concentrations and 16 different glucose concentrations in a coupled enzyme assay system that detects glucokinase activity via depletion of β-NADH.

Row | EC50 | Compound
1 | 15.1 µM | CCn1cc2c(Oc3cnc(C(=O)N4CCC4)cn3)cc(C(=O)Nc3cnn(C)n3)cc2n1 [Example 1BX, 4-(5-(azetidine-1-carbonyl)pyrazin-2-yloxy)-2-ethyl-N-(2-methyl-2H-1,2,3-triazol-4-yl)-2H-indazole-6-carboxamide]
2 | 17.5 µM | CC(C)n1cc2c(Oc3cnc(C(=O)N4CCC4)cn3)cc(C(=O)Nc3cnn(C)n3)cc2n1 [Example 1BY, 4-(5-(azetidine-1-carbonyl)pyrazin-2-yloxy)-2-isopropyl-N-(2-methyl-2H-1,2,3-triazol-4-yl)-2H-indazole-6-carboxamide]
3 | 25.1 µM | CCn1cc2c(Oc3cnc(C(=O)N(C)C)cn3)cc(C(=O)Nc3cnn(C)n3)cc2n1 [Example 1BZ, 4-(5-(dimethylcarbamoyl)pyrazin-2-yloxy)-2-ethyl-N-(2-methyl-2H-1,2,3-triazol-4-yl)-2H-indazole-6-carboxamide]
4 | 8.52 µM | CCn1cc2c(Oc3ccc(S(C)(=O)=O)cc3)cc(C(=O)Nc3cnn(C)n3)cc2n1 [Example 1CA, 2-ethyl-4-[4-(methylsulfonyl)phenoxy]-N-(2-methyl-2H-1,2,3-triazol-4-yl)-2H-indazole-6-carboxamide]
5 | 0.537 µM | CCn1cc2c(Oc3ccc(S(C)(=O)=O)cc3)cc(C(=O)Nc3cnc(C)cn3)cc2n1 [Example 1CB, 2-ethyl-N-(5-methylpyrazin-2-yl)-4-[4-(methylsulfonyl)phenoxy]-2H-indazole-6-carboxamide]
6 | 1.21 µM | CCn1cc2c(Oc3ccc(S(C)(=O)=O)cc3)cc(C(=O)Nc3ccn(C)n3)cc2n1 [Example 1CC, 2-ethyl-N-(1-methyl-1H-pyrazol-3-yl)-4-[4-(methylsulfonyl)phenoxy]-2H-indazole-6-carboxamide]
7 | 0.261 µM | CCn1cc2c(Oc3ccc(S(C)(=O)=O)cc3)cc(C(=O)Nc3ccc(C(N)=O)cn3)cc2n1 [Example 1CD, N-(5-carbamoylpyridin-2-yl)-2-ethyl-4-[4-(methylsulfonyl)phenoxy]-2H-indazole-6-carboxamide]
8 | 0.558 µM | CCn1cc2c(Oc3ccc(S(C)(=O)=O)cc3)cc(C(=O)Nc3ccc(CC(N)=O)cn3)cc2n1 [Example 1CE, N-[5-(2-amino-2-oxoethyl)pyridin-2-yl]-2-ethyl-4[4-(methylsulfonyl)phenoxy]-2H-indazole-6-carboxamide]
9 | 1.49 µM | CCn1cc2c(Oc3ccc(S(C)(=O)=O)cc3)cc(C(=O)Nc3ccn(CC(N)=O)n3)cc2n1 [Example 1CG, N-[1-(2-amino-2-oxoethyl)-1H-pyrazol-3-yl]-2-ethyl-4-[4-(methylsulfonyl)phenoxy]-2H-indazole-6-carboxamide]
10 | 0.714 µM | CCn1cc2c(Oc3ccc(S(C)(=O)=O)cc3)cc(C(=O)Nc3ccc(F)cn3)cc2n1 [Example 1CI, 2-ethyl-N-(5-fluoropyridin-2-yl)-4-[4-(methylsulfonyl)phenoxy]-2H-indazole-6-carboxamide]
11 | 0.282 µM | Cn1cc(NC(=O)c2cc(Oc3ccc(S(C)(=O)=O)cc3)c3cn(C)nc3c2)nn1 [Example 1CJ, 2-methyl-4-[4-(methylsulfonyl)phenoxy]-N-(1-methyl-1H-1,2,3-triazol-4-yl)-2H-indazole-6-carboxamide]
12 | 0.396 µM | CCn1cc2c(Oc3ccc(S(C)(=O)=O)cc3)cc(C(=O)Nc3ccc(C(=O)OC)cn3)cc2n1 [Example 1CK, methyl 6-[({2-ethyl-4-[4-(methylsulfonyl)phenoxy]-2H-indazol-6-yl}carbonyl)amino]nicotinate]
13 | 0.919 µM | CCn1cc2c(Oc3ccc(S(C)(=O)=O)cc3)cc(C(=O)Nc3ncns3)cc2n1 [Example 1CL, 2-ethyl-4-[4-(methylsulfonyl)phenoxy]-N-1,2,4-thiadiazol-5-yl-2H-indazole-6-carboxamide]
14 | 2.45 µM | CCn1cc2c(Oc3cnc(NC(C)=O)cn3)cc(C(=O)Nc3ccc(C)cn3)cc2n1 [Example 1CM, 4-(5-acetamidopyrazin-2-yloxy)-2-ethyl-N-(5-methylpyridin-2-yl)-2H-indazole-6-carboxamide]
15 | 2.32 µM | CC(=O)N(C)c1cnc(Oc2cc(C(=O)Nc3ccc(C)cn3)cc3nn(C)cc23)cn1 [Example 1CN, 2-methyl-4-(5-(N-methylacetamido)pyrazin-2-yloxy)-N-(5-methylpyridin-2-yl)-2H-indazole-6-carboxamide]
16 | 1.88 µM | CCn1cc2c(Oc3cnc(C(N)=O)cn3)cc(C(=O)Nc3ccc(C)cn3)cc2n1 [Example 1CO, 4-(5-carbamoylpyrazin-2-yloxy)-2-ethyl-N-(5-methylpyridin-2-yl)-2H-indazole-6-carboxamide]
17 | 2.28 µM | CCn1cc2c(Oc3cnc(C(=O)N4CCOCC4)cn3)cc(C(=O)Nc3ccc(C)cn3)cc2n1 [Example 1CP, 2-ethyl-N-(5-methylpyridin-2-yl)-4-(5-(morpholine-4-carbonyl)pyrazin-2-yloxy)-2H-indazole-6-carboxamide]
18 | 2.88 µM | CCn1cc2c(Oc3ccc(S(N)(=O)=O)cc3)cc(C(=O)Nc3ccn(C)n3)cc2n1 [Example 1CQ, 4-[4-(aminosulfonyl)phenoxy]-2-ethyl-N-(1-methyl-1H-pyrazol-3-yl)-2H-indazole-6-carboxamide]
19 | 0.586 µM | CCn1cc2c(Oc3ccc(S(N)(=O)=O)cc3)cc(C(=O)Nc3cnc(C)cn3)cc2n1 [Example 1CR, 4-[4-(aminosulfonyl)phenoxy]-2-ethyl-N-(5-methylpyrazin-2-yl)-2H-indazole-6-carboxamide]
20 | 0.418 µM | CCn1cc2c(Oc3ccc(S(N)(=O)=O)cc3)cc(C(=O)Nc3cnc(OC)cn3)cc2n1 [Example 1CS, 4-[4-(aminosulfonyl)phenoxy]-2-ethyl-N-(5-methoxypyrazin-2-yl)-2H-indazole-6-carboxamide]
21 | 1.82 µM | CCn1cc2c(Oc3ccc(S(N)(=O)=O)cc3)cc(C(=O)Nc3ccc(F)cn3)cc2n1 [Example 1CT, 4-[4-(aminosulfonyl)phenoxy]-2-ethyl-N-(5-fluoropyridin-2-yl)-2H-indazole-6-carboxamide]
22 | 1.37 µM | CCc1cnc(NC(=O)c2cc(Oc3ccc(S(N)(=O)=O)cc3)c3cn(CC)nc3c2)cn1 [Example 1CU, 4-[4-(aminosulfonyl)phenoxy]-2-ethyl-N-(5-ethylpyrazin-2-yl)-2H-indazole-6-carboxamide]
23 | 0.715 µM | CCn1cc2c(Oc3ccc(S(C)(=N)=O)cc3)cc(C(=O)Nc3ccc(C)cn3)cc2n1 (stereo not drawn) [Example 1CV, 2-ethyl-N-(5-methylpyridin-2-yl)-4-[4-(S-methylsulfonimidoyl)phenoxy]-2H-indazole-6-carboxamide]
24 | 2.47 µM | CCn1cc2c(Oc3ccc(S(C)(=N)=O)cc3)cc(C(=O)Nc3ccn(C)n3)cc2n1 (stereo not drawn) [Example 1CY, 2-ethyl-N-(1-methyl-1H-pyrazol-3-yl)-4-[4-(S-methylsulfonimidoyl)phenoxy]-2H-indazole-6-carboxamide]
